The record followed here is US20090257999A1, “Method of preventing contrast-induced nephropathy” (Inotek Pharmaceuticals Corporation, priority 2007, published 2009).

In this assay the test system is diabetic rats. The assay is described as follows: Histologic evaluation of kidney outer medulla damage, Example 1. The format is in vivo, rat. The note with it: at 96 hours. The method, then: Experimental model for assessing the effects of Metalloporphyrin A on CIN: Diabetic (n=8) for group #'s 1-9 or wild-type rats (n=10) for group #'s 10 and 11 were treated with drug 60 min prior to contrast agent administration. At the “0” time point, Iomeprol was administered with ensuing drug intervention dosing every 12 hours for Metalloporphyrin A from 24-84 hours or every 24 hours for NAC from 24-72 hours. At the 96 hour time point, kidneys were harvested for histopathology, MPO and MDA measurements. From 0-96 hours, plasma samples from all animals per group were screened for urea, creatinine, fractional excretion of Na^+ and NGAL.
At postmortem, a […] section of kidney was removed and placed in formalin and processed through to wax. […] sections were cut and stained with hematoxylin and eosin. Histologic assessment of tubular necrosis was determined semi-quantitatively using a method modified from McWhinnie et al, Transplantation. 42(4):352-81986, 1986.
Histologic assessment of outer medulla damage was examined by an experienced morphologist, who was not aware of the sample identity. […]

Consider `CC(=O)N[C@@H](CS)C(=O)O` [NAC, N-acetylcysteine], for which the “kidney injury (histological score)” value is recorded as “significant reductions” (diabetic rats + i.v. Iomeprol, Metalloporphyrin A 30-1000 μg/kg or NAC 10 mg/kg i.p.) and “significantly reduced” (diabetic rats + i.v. saline (no contrast agent), Metalloporphyrin A 1000 μg/kg or NAC 10 mg/kg i.p.).
